Test results taken from US20250304563A1, “ACTIVATORS OF EFFECTOR T CELLS” (Orum Therapeutics, Inc., priority 2022, published 2025).

How the values were obtained:
Human primary T cells [1] = assay: T cell activation: CD69 surface expression by flow cytometry; format: cell-based; settings: fold over anti-CD3 stimulated background normalized to Compound 141A; for CD69 10 nM: 10 nM compound; for CD69 100 nM: 100 nM compound; for CD69 1 nM: 1 nM compound
Outline: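 Negatively selected human primary T cells (1×10^5/well, XVivo-15) were captured on plates coated with 10 μg/mL anti-CD3 (OKT3). They were exposed to serially diluted compounds in duplicate for 48 h at 37° C. CD69 was read by flow cytometry as fold over anti-CD3-only background, normalized to Compound 141A and binned into ranges.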

Human primary T cells [2] = assay: T cell activation: secreted IL-2; format: cell-based; settings: 48 hours, fold over background normalized to Compound 141A; for IL-2 1 nM: 1 nM compound; for IL-2 10 nM: 10 nM compound; for IL-2 100 nM: 100 nM compound
Outline: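 Negatively selected human primary T cells on plate-bound anti-CD3 (OKT3) in serum-free medium, treated 48 h at 37° C. with serial compound dilutions in duplicate. Secreted IL-2 by bead-based cytometric assay, expressed as fold over anti-CD3/CD28 background normalized to a reference compound, then binned into ranges.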

Human primary T cells [3] = assay: T cell activation: secreted IFN-y; format: cell-based; settings: 48 hours, fold over background normalized to Compound 141A; for IFN-y 1 nM: 1 nM compound; for IFN-y 10 nM: 10 nM compound; for IFN-y 100 nM: 100 nM compound
Outline: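 Negatively selected primary human T cells (1×10^5/well, serum-free XVivo-15) on plates coated with 10 μg/mL anti-CD3 were exposed to serial compound dilutions for 48 h at 37 °C. Secreted IFN-γ was measured by cytometric bead array and expressed as fold over anti-CD3/CD28 background, normalized to a reference compound and binned into ranges A–D.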

[4] = molecular target: Cbl-b (36-427 aa truncated form, N-terminus Avi-tag) (Homo sapiens (Human), UniProt Q13191); assay: Cbl-b binding: TR-FRET displacement of BODIPY-FL probe
Chain of Cbl-b (36-427 aa truncated form, N-terminus Avi-tag) (Q13191 36-427): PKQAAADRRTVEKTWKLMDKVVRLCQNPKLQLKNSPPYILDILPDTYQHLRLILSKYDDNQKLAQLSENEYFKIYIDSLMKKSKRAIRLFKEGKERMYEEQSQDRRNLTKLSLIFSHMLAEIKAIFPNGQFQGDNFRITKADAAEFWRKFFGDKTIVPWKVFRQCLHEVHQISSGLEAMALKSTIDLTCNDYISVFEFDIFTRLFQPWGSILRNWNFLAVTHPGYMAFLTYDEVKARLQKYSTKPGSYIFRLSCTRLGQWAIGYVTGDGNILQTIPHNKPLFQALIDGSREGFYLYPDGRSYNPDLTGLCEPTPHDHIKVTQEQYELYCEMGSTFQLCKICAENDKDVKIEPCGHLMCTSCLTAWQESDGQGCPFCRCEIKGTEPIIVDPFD
Outline: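 Avi-tagged Cbl-b 36-427 preincubated 1 h at RT with streptavidin-terbium in HEPES pH 7.5/NaCl/Triton/BSA/TCEP buffer, then 1 uM BODIPY-FL inhibitor probe plus compound added for 1 h. Probe displacement read by TR-FRET; IC50 fitted.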

Row | SMILES | CD69 10 nM (Human primary T cells [1]) | CD69 100 nM (Human primary T cells [1]) | IL-2 1 nM (Human primary T cells [2]) | IL-2 10 nM (Human primary T cells [2]) | IL-2 100 nM (Human primary T cells [2]) | IFN-y 1 nM (Human primary T cells [3]) | IFN-y 10 nM (Human primary T cells [3]) | IFN-y 100 nM (Human primary T cells [3]) | IC50 [4] [nM] | CD69 1 nM (Human primary T cells [1])
1 | CC#CC(=O)N1CCN(c2cc(C3(Cc4nncn4C)COC3)cc(N3Cc4c(cc(CN5CCC[C@H](C)C5)cc4C(F)(F)F)C3=O)n2)CC1 [Compound 137] | B (values between 0.61 and 0.80: range “B;”) | A (values between 0.81 and 1.10: range “A”) | C (values between 0.10 and 0.30: range “C”) | B (values between 0.31 and 0.79: range “B”) | B (values between 0.31 and 0.79: range “B”) | B (values between 0.31 and 1.00: range “B;”) | B (values between 0.31 and 1.00: range “B;”) | B (values between 0.31 and 1.00: range “B;”) | 5.01 to 20 | –
2 | CCNc1cc(C2(Cc3nncn3C)COC2)cc(N2Cc3c(cc([C@H](CSC)N4CCC[C@H](C)C4)cc3C(F)(F)F)C2=O)n1 [Compound 141A, 2-[6-(ethylamino)-4-{3-[(4-methyl-1,2,4-triazol-3-yl)methyl]oxetan-3-yl}pyridin-2-yl]-6-[(1R)-1-[(3S)-3-methylpiperidin-1-yl]-2-(methylsulfanyl)ethyl]-4-(trifluoromethyl)-3H-isoindol-1-one] | A (values between 0.81 and 1.10: range “A”) | A (values between 0.81 and 1.10: range “A”) | B (values between 0.31 and 0.79: range “B”) | B (values between 0.31 and 0.79: range “B”) | A (between 0.80 and 1.40: range “A”) | B (values between 0.31 and 1.00: range “B;”) | B (values between 0.31 and 1.00: range “B;”) | A (fold over background between 1.10 and 2.00: range “A”) | 5.01 to 20 | –
3 | CCNc1cc(C2(Cc3nncn3C)COC2)cc(N2Cc3c(cc([C@@H](CSC)N4CCC[C@H](C)C4)cc3C(F)(F)F)C2=O)n1 [Compound 141B, 2-[6-(ethylamino)-4-{3-[(4-methyl-1,2,4-triazol-3-yl)methyl]oxetan-3-yl}pyridin-2-yl]-6-[(1s)-1-[(3S)-3-methylpiperidin-1-yl]-2-(methylsulfanyl)ethyl]-4-(trifluoromethyl)-3H-isoindol-1-one] | A (values between 0.81 and 1.10: range “A”) | A (values between 0.81 and 1.10: range “A”) | B (values between 0.31 and 0.79: range “B”) | B (values between 0.31 and 0.79: range “B”) | B (values between 0.31 and 0.79: range “B”) | C (values between 0.10 and 0.30: range “C”) | B (values between 0.31 and 1.00: range “B;”) | B (values between 0.31 and 1.00: range “B;”) | 5.01 to 20 | –
4 | CSc1cc(CN2CCC[C@H](C)C2)cc2c1CN(c1cccc([C@]3(c4nncn4C)C[C@H](C)C3)c1)C2=O [Compound 150, 6-{[(3S)-3-methylpiperidin-1-yl]methyl}-4-(methylsulfanyl)-2-{3-[(1r,3s)-3-methyl-1-(4-methyl-1,2,4-triazol-3-yl)cyclobutyl]phenyl}-3H-isoindol-1-one] | C (values between 0.30 and 0.60: range “C”) | A (values between 0.81 and 1.10: range “A”) | D (values between 0.01 and 0.09: range “D.”) | C (values between 0.10 and 0.30: range “C”) | B (values between 0.31 and 0.79: range “B”) | B (values between 0.31 and 1.00: range “B;”) | B (values between 0.31 and 1.00: range “B;”) | A (fold over background between 1.10 and 2.00: range “A”) | 1 to 5 | C (values between 0.30 and 0.60: range “C”)
5 | CC1CC(c2cccc(N3Cc4c(cc(C(CO)N5CCC[C@H](C)C5)cc4C(F)(F)F)C3=O)c2)(c2nncn2C)C1 (stereo partly drawn) [Compound 152, 6-{2-hydroxy-1-[(3S)-3-methylpiperidin-1-yl]ethyl}-2-{3-[(1r,3s)-3-methyl-1-(4-methyl-1,2,4-triazol-3-yl)cyclobutyl]phenyl}-4-(trifluoromethyl)-3H-isoindol-1-one] | C (values between 0.30 and 0.60: range “C”) | A (values between 0.81 and 1.10: range “A”) | C (values between 0.10 and 0.30: range “C”) | C (values between 0.10 and 0.30: range “C”) | C (values between 0.10 and 0.30: range “C”) | C (values between 0.10 and 0.30: range “C”) | B (values between 0.31 and 1.00: range “B;”) | B (values between 0.31 and 1.00: range “B;”) | 1 to 5 | C (values between 0.30 and 0.60: range “C”)
6 | CSc1cc(CN2CCC[C@H](C)C2)cc2c1CN(c1cc(C3(Cc4nncn4C)COC3)cc(NCCC#N)n1)C2=O.O=C(O)C(F)(F)F [Compound 154, 3-[(4-{3-[(4-methyl-1,2,4-triazol-3-yl)methyl]oxetan-3-yl}-6-(6-{[(3S)-3-methylpiperidin-1-yl]methyl}-4-(methylsulfanyl)-1-oxo-3H-isoindol-2-yl)pyridin-2-yl)amino]propanenitrile; trifluoroacetic acid] | C (values between 0.30 and 0.60: range “C”) | B (values between 0.61 and 0.80: range “B;”) | D (values between 0.01 and 0.09: range “D.”) | D (values between 0.01 and 0.09: range “D.”) | C (values between 0.10 and 0.30: range “C”) | B (values between 0.31 and 1.00: range “B;”) | B (values between 0.31 and 1.00: range “B;”) | B (values between 0.31 and 1.00: range “B;”) | 1 to 5 | C (values between 0.30 and 0.60: range “C”)
7 | Cn1cnnc1CC1(c2cc(NCCC#N)nc(N3Cc4c(cc(CN5CCCC6OCCC65)cc4C(F)(F)F)C3=O)c2)COC1 (centres unmarked) [Compound 162, 3-{[6-(6-{hexahydro-2H-furo[3,2-b]pyridin-4-ylmethyl}-1-oxo-4-(trifluoromethyl)-3H-isoindol-2-yl)-4-{3-[(4-methyl-1,2,4-triazol-3-yl)methyl]oxetan-3-yl}pyridin-2-yl]amino}propanenitrile] | C (values between 0.30 and 0.60: range “C”) | C (values between 0.30 and 0.60: range “C”) | D (values between 0.01 and 0.09: range “D.”) | D (values between 0.01 and 0.09: range “D.”) | D (values between 0.01 and 0.09: range “D.”) | C (values between 0.10 and 0.30: range “C”) | B (values between 0.31 and 1.00: range “B;”) | B (values between 0.31 and 1.00: range “B;”) | 5.01 to 20 | C (values between 0.30 and 0.60: range “C”)
8 | Cn1cnnc1CC1(c2cc(NCCC#N)nc(N3Cc4c(cc(CN5CC6(F)CC(CO)(C5)C6)cc4C(F)(F)F)C3=O)c2)COC1.O=C(O)C(F)(F)F [Compound 164, 3-{[6-(6-{[1-fluoro-5-(hydroxymethyl)-3-azabicyclo[3.1.1]heptan-3-yl]methyl}-1-oxo-4-(trifluoromethyl)-3H-isoindol-2-yl)-4-{3-[(4-methyl-1,2,4-triazol-3-yl)methyl]oxetan-3-yl}pyridin-2-yl]amino}propanenitrile; trifluoroacetic acid] | C (values between 0.30 and 0.60: range “C”) | C (values between 0.30 and 0.60: range “C”) | C (values between 0.10 and 0.30: range “C”) | C (values between 0.10 and 0.30: range “C”) | C (values between 0.10 and 0.30: range “C”) | C (values between 0.10 and 0.30: range “C”) | C (values between 0.10 and 0.30: range “C”) | B (values between 0.31 and 1.00: range “B;”) | 5.01 to 20 | C (values between 0.30 and 0.60: range “C”)
